These results are taken from patent publication US11524966B1 (Valo Early Discovery, Inc., priority 2017, dated 2022).

Structures are written as SMILES.

This experiment has as its target T1, USP28 (His-tagged USP28-FL-mammalian) (Homo sapiens, UniProt Q96RU2).
T1 construct: Expression of USP28 (1-1077)-TEV-6*His (pTT5 vector); made in house; host or cells: Expi293f cells (pTT5 vector)
T1 sequence (Q96RU2 1-1077): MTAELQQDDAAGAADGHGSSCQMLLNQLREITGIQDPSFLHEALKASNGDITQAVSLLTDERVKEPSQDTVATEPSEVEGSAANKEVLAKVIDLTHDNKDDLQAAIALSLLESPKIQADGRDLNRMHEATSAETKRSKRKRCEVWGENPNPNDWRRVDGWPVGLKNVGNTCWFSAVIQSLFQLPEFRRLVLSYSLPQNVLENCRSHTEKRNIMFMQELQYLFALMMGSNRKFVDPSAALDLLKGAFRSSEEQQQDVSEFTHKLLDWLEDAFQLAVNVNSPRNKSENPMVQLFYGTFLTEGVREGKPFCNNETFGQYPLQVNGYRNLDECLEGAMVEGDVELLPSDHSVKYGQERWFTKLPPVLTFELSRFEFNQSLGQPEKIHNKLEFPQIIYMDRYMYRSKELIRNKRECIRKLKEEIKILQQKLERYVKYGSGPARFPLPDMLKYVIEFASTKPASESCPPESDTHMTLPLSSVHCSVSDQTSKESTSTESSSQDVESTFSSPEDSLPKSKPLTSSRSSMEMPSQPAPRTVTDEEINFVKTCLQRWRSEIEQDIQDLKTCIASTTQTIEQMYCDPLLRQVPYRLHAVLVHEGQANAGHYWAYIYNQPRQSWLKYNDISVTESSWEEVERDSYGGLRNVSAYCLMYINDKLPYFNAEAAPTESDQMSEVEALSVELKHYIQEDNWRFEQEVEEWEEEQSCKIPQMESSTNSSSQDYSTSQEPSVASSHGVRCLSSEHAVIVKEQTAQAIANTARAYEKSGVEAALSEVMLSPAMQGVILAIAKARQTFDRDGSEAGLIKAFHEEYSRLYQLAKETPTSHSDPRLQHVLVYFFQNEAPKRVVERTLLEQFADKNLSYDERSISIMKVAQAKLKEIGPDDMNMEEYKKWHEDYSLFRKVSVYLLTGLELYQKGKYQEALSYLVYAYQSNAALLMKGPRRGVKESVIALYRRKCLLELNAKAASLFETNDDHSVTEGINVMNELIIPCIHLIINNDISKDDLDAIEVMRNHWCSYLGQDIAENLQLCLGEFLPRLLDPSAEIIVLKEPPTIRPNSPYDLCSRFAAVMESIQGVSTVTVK
The experiment is described as follows: Ubiquitin-Rhodamine 110 Assay for USP28 Activity, Example A-1(a). The note with it: Ubiquitin-Rhodamine 110 assay, Example A-1(a); read-out: USP28 A-1(a) IC50 range. It counts as biochemical. Summed up:
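IC50 from 4-parameter logistic fit of percent inhibition versus no-enzyme and DMSO controls; compounds 25 μM to 1.3 nM, 3-fold. Ub-Rh110 cleavage (25 nM, below Km) by […] mammalian-expressed USP28-FL-His ran 45 min at room temperature, stopped with 10 mM citric acid, read ex 485/em 535.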

For `Cc1ccc2c(N)c(C(=O)N[C@@H]3Cc4ccc(N5CCNCC5)nc4[C@@H](C)C3)sc2n1` (single isomer, unassigned) [Example 205], the IC50 was in the range of 200 to 2000 nM.

`Cc1cc(C)c2c(N)c(C(=O)N[C@H]3COc4cc(N5CC[C@H]6CNC[C@H]65)cc(F)c4C3)sc2n1` (single isomer, unassigned) [Example 222]: the IC50 lay in the range of 1 to 50 nM.

As to `Cc1cc(C)c2c(N)c(C(=O)N[C@H]3COc4cc(N5CC[C@@H]6CNC[C@@H]65)cc(F)c4C3)sc2n1` (single isomer, unassigned) [Example 223], the IC50 fell in the range of 1 to 50 nM.

For the compound `CO[C@H]1CN(c2cc3c(cc2C#N)C[C@@H](NC(=O)c2sc4nc(C)ccc4c2N)CO3)C[C@@H]1N` [Example 177, 3-amino-N-[(3R)-7-[(3S,4S)-3-amino-4-methoxypyrrolidin-1-yl]-6-cyano-3-4-dihydro-2H-1-benzopyran-3-yl]-6-methylthieno[2,3-b]pyridine-2-carboxamide], the IC50 lay within 1 to 50 nM.

`CO[C@H]1CN(c2ccc3c(c2C#N)CC[C@H](NC(=O)c2sc4nc(C)ccc4c2N)C3)C[C@@H]1N` [Example 178, 3-amino-N-[(2S)-6-[(3S,4S)-3-amino-4-methoxypyrrolidin-1-yl]-5-cyano-1,2,3,4-tetrahydronaphthalen-2-yl]-6-methylthieno[2,3-b]pyridine-2-carboxamide]: the IC50 lay within 1 to 50 nM.

For the compound `CO[C@H]1CN(c2ccc3c(n2)OC[C@H](NC(=O)c2sc4nc(C)cnc4c2N)C3)C[C@@H]1N` [Example 181, 7-amino-N-[(3R)-7-[(3S,4S)-3-amino-4-methoxypyrrolidin-1-yl]-2H,3H,4H-pyrano[2,3-b]pyridin-3-yl]-3-methylthieno[2,3-b]pyrazine-6-carboxamide], the IC50 is 200 to 2000 nM.

As for `CCO[C@H]1CN(c2ccc3c(n2)OC[C@H](NC(=O)c2sc4nc(C)cnc4c2N)C3)C[C@@H]1N` [Example 182, 7-amino-N-[(3R)-7-[(3S,4S)-3-amino-4-ethoxypyrrolidin-1-yl]-2H,3H,4H-pyrano[2,3-b]pyridin-3-yl]-3-methylthieno[2,3-b]pyrazine-6-carboxamide], the IC50 is 200 to 2000 nM.

`CO[C@H]1CN(c2nc3c(cc2F)C[C@@H](NC(=O)c2sc4nc(C)ccc4c2N)CC3)C[C@@H]1N` [Example 183, 3-amino-N-[(6S)-2-[(3S,4S)-3-amino-4-methoxypyrrolidin-1-yl]-3-fluoro-5,6,7,8-tetrahydroquinolin-6-yl]-6-methylthieno[2,3-b]pyridine-2-carboxamide]: the IC50 lay within 50 to 200 nM.

Take `Cc1ccc2c(N)c(C(=O)N[C@H]3COc4cc(N5CCO[C@H]6CNC[C@H]65)ccc4C3)sc2n1` [Example 184, N-[(3R)-7-[(4aR, 7aS)-octahydropyrrolo[3,4-b]morpholin-4-yl]-3,4-dihydro-2H-1-benzopyran-3-yl]-3-amino-6-methylthieno[2,3-b]pyridine-2-carboxamide]: the IC50 fell in the range of 1 to 50 nM.

For the compound `Cc1ccc2c(N)c(C(=O)N[C@H]3COc4cc(N5CCO[C@@H]6CNC[C@@H]65)ccc4C3)sc2n1` [Example 185, N-[(3R)-7-[(4aS,7aR)-octahydropyrrolo[3,4-b]morpholin-4-yl]-3,4-dihydro-2H-1-benzopyran-3-yl]-3-amino-6-methylthieno[2,3-b]pyridine-2-carboxamide], the half-maximal inhibitory concentration (IC50) fell in the range of 1 to 50 nM.

Regarding `CO[C@H]1CN(c2ccc3c(c2)CC[C@H](NC(=O)c2cnc4c(c2)C2CC2CN4)C3)C[C@@H]1N` (stereo partly drawn) [Example 188, N-[(2S)-6-[(3S,4S)-3-amino-4-methoxypyrrolidin-1-yl]-1,2,3,4-tetrahydronaphthalen-2-yl]-5H,6H,6aH,7H,7aH-cyclopropa[c]1,8-naphthyridine-2-carboxamide], the IC50 is 200 to 2000 nM.

As for `CO[C@H]1CN(c2ccc3c(c2)CC[C@H](NC(=O)c2cnc4c(c2)[C@@H]2C[C@@H]2CN4)C3)C[C@@H]1N` [Example 189, (6aS,7aR)-N-[(2S)-6-[(3S,4S)-3-amino-4-methoxypyrrolidin-1-yl]-1,2,3,4-tetrahydronaphthalen-2-yl]-5H,6H,6aH,7H,7aH-cyclopropa[c]1,8-naphthyridine-2-carboxamide], the IC50 is 200 to 2000 nM.

Turning to `CO[C@H]1CN(c2ccc3c(c2)CC[C@H](NC(=O)c2cnc4c(c2)[C@H]2C[C@H]2CN4)C3)C[C@@H]1N` [Example 190, (6aR,7aS)-N-[(2S)-6-[(3S,4S)-3-amino-4-methoxypyrrolidin-1-yl]-1,2,3,4-tetrahydronaphthalen-2-yl]-5H,6H,6aH,7H,7aH-cyclopropa[c]1,8-naphthyridine-2-carboxamide], the IC50 is above 2000 nM.

As for `O=C(N[C@H]1CCc2cc(N3CC4CCC(C3)N4)cc(F)c2C1)c1cnc2c(c1)[C@@H]1C[C@@H]1CN2` [Example 191, (6aS,7aR)-N-[(2S)-6-{3,8-diazabicyclo[3.2.1]octan-3-yl}-8-fluoro-1,2,3,4-tetrahydronaphthalen-2-yl]-5H,6H,6aH,7H,7aH-cyclopropa[c]1,8-naphthyridine-2-carboxamide], the IC50 was above 2000 nM.

For the compound `O=C(N[C@H]1CCc2cc(N3CC4CCC(C3)N4)cc(F)c2C1)c1cnc2c(c1)[C@H]1C[C@H]1CN2` [Example 192, (6aR,7aS)-N-[(2S)-6-{3,8-diazabicyclo[3.2.1]octan-3-yl}-8-fluoro-1,2,3,4-tetrahydronaphthalen-2-yl]-5H,6H,6aH,7H,7aH-cyclopropa[c]1,8-naphthyridine-2-carboxamide], the IC50 is 50 to 200 nM.

Regarding `O=C(N[C@@H]1CCc2cc(N3CC4CCC(C3)N4)cc(F)c2C1)c1cnc2c(c1)[C@@H]1C[C@@H]1CN2` [Example 193, (6aS,7aR)-N-[(2R)-6-{3,8-diazabicyclo[3.2.1]octan-3-yl}-8-fluoro-1,2,3,4-tetrahydronaphthalen-2-yl]-5H,6H,6aH,7H,7aH-cyclopropa[c]1,8-naphthyridine-2-carboxamide], the IC50 fell in the range of 200 to 2000 nM.

In the case of `O=C(N[C@@H]1CCc2cc(N3CC4CCC(C3)N4)cc(F)c2C1)c1cnc2c(c1)[C@H]1C[C@H]1CN2` [Example 194, (6aR,7aS)-N-[(2R)-6-{3,8-diazabicyclo[3.2.1]octan-3-yl}-8-fluoro-1,2,3,4-tetrahydronaphthalen-2-yl]-5H,6H,6aH,7H,7aH-cyclopropa[c]1,8-naphthyridine-2-carboxamide], the IC50 is 200 to 2000 nM.

For the compound `N#Cc1c(N2CC3CCC(C2)N3)cc(F)c2c1CC[C@H](NC(=O)c1cnc3c(c1)[C@@H]1C[C@@H]1CN3)C2` [Example 195, (6aS,7aR)-N-[(2S)-5-cyano-6-{3,8-diazabicyclo[3.2.1]octan-3-yl}-8-fluoro-1,2,3,4-tetrahydronaphthalen-2-yl]-5H,6H,6aH,7H,7aH-cyclopropa[c]1,8-naphthyridine-2-carboxamide], the IC50 lay in the range of 1 to 50 nM.

Consider `N#Cc1c(N2CC3CCC(C2)N3)cc(F)c2c1CC[C@H](NC(=O)c1cnc3c(c1)[C@H]1C[C@H]1CN3)C2` [Example 196, (6aR,7aS)-N-[(2S)-5-cyano-6-{3,8-diazabicyclo[3.2.1]octan-3-yl}-8-fluoro-1,2,3,4-tetrahydronaphthalen-2-yl]-5H,6H,6aH,7H,7aH-cyclopropa[c]1,8-naphthyridine-2-carboxamide], for which the half-inhibitory concentration (IC50) was above 2000 nM.

Take `N#Cc1c(N2CC3CCC(C2)N3)cc(F)c2c1CC[C@@H](NC(=O)c1cnc3c(c1)[C@@H]1C[C@@H]1CN3)C2` [Example 197, (6aS,7aR)-N-[(2R)-5-cyano-6-{3,8-diazabicyclo[3.2.1]octan-3-yl}-8-fluoro-1,2,3,4-tetrahydronaphthalen-2-yl]-5H,6H,6aH,7H,7aH-cyclopropa[c]1,8-naphthyridine-2-carboxamide]: the concentration for half-maximal inhibition (IC50) was above 2000 nM.

On to `N#Cc1c(N2CC3CCC(C2)N3)cc(F)c2c1CC[C@@H](NC(=O)c1cnc3c(c1)[C@H]1C[C@H]1CN3)C2` [Example 198, (6aR,7aS)-N-[(2R)-5-cyano-6-{3,8-diazabicyclo[3.2.1]octan-3-yl}-8-fluoro-1,2,3,4-tetrahydronaphthalen-2-yl]-5H,6H,6aH,7H,7aH-cyclopropa[c]1,8-naphthyridine-2-carboxamide], for which the IC50 lay within 200 to 2000 nM.

As a reminder, the IC50 is the concentration at which inhibition is half-maximal.
